Measurements published in patent US20240216310A1, “Rapid Onset Therapeutic Anti-Depression Ketosis Enabled by D-BetaHydroxyButyric Acid Systems, Methods and Compounds for Psilocybin co-administration” (American Ketone Therapeutics LLC, priority 2022, published 2024).

Columns and labels:
[1] = Phase 2b clinical trial reported by Compass Pathways; cited from earlier work
[2] = Blood ketone levels by Abbott blood test strip after D-BHB oral drink; format: in vivo, human
Excerpt: FIG. 8 is a graphical illustration of D-BHB exogenous ketone blood levels. FIG. 8 details rapid ketosis confirmed by Abbott blood test strip after 15 g D-BHB with palatability agent administered by oral drink. Blood ketone levels document rise from 0.1 mmol/L to 2.7 mmol/L. By supplementing an individual with exogenous ketone preparations incorporating the natural D-Beta-HydroxyButyric Acid (D-BHB) optionally combined with a palatability agent, internal body ketone levels rapidly rise when directly compared with non-supplementing individuals. The ketone body D-BHB is first and foremost an energy source, which is directly and preferentially metabolized by the brain. D-BHB is also active as a signaling mechanism and neuro-inflammation reduction agent, resulting in broad and beneficial mental health related benefits.
FIG. 9 is a graphical illustration of D-BHB exogenous ketone blood levels. FIG. 9 details rapid ketosis within 45 minutes confirmed by Abbott blood test strip after 10 g D-BHB with palatability agent administered by oral drink. Blood ketone levels document rise from 0.2 mmol/L to 1.8 mmol/L and 0.6 mmol/L to 1.9 mmol/L in a variety of test subjects. FIG. 9 reinforces the fact that supplementation by utilizing free D only BetaHydroxyButyric Acid without ketone salt or ketone ester is a reliable, reproducible method and system for rapid ketone level increase for mental health protection and maintenance. While amounts of free D only BetaHydroxyButyric Acid taken for mental health anti-depression effects may vary, it is an anticipated preferred embodiment that levels are between 5 and 30 grams of D only BetaHydroxyButyric Acid taken as needed for optimum anti-depression effects. Alternate embodiments may include lower or higher amounts, however, experimental evidence has confirmed optimal administration in this range.

[3] = Continuous glucose monitoring (Abbot Libre CGM) with carbohydrate challenge; format: in vivo, human; conditions: 10 g given 45 minutes before 50 g carbohydrate ingestion; compared with unsupplemented ingestion
Excerpt: FIG. 10 is a graphical illustration of continuous monitoring of body glucose levels. FIG. 10 depicts continuous glucose monitoring levels with carbohydrate challenge documented by Abbot Libre Continuous Glucose Monitoring (CGM) device. In this illustrative embodiment, glucose levels from a 50 g carbohydrate ingestion are depicted unaided by free D-BetaHydroxyButyric Acid on the left and repeated the following day with two 50 g carbohydrate ingestions accompanied by 10 g free D-BetaHydroxyButyric Acid administered 45 minutes before the carbohydrate insult. The data is noteworthy in that while the equivalent amount of identical (nacho chip platter) carbohydrates were consumed, the rapid glucose spike depicted in the unsupplemented ingestion is not found with 10 g D-BetaHydroxyButyric Acid accompaniment. […] As free D-BetaHydroxyButyric Acid can lower glucose while rapidly increasing ketone levels, it is believed that obtaining high ketones while lowering glucose will yield additional anti-depression benefits to high glucose sensitive individuals suffering from depression.

[4] = Continuous Ketone Meter (CKM) monitoring of body ketone levels and deep sleep; format: in vivo, human; conditions: 5 grams consumed 45 minutes prior to bedtime
Excerpt: FIG. 11 is a graphical illustration of continuous monitoring of body ketone levels resulting in improved deep sleep time due to enhanced D-BHB levels according to the claimed invention. It is noteworthy that consumption of even small amounts of free D-BetaHydroxyButyric Acid can give rise to therapeutic ketosis levels as measured by Continuous Ketone Meter (CKM). […] While free D-BetaHydroxyButyric Acid is not a sedative, even small amounts can greatly improve deep sleep quantity and quality. It is an intended and foreseeable embodiment application to increase deep sleep with free D-BetaHydroxyButyric Acid with the aim of improving mental health and anti-depression resiliency.

[5] = Preliminary data on anxiety and depression after D-BetaHydroxyButyric Acid administration; format: in vivo, human; conditions: individuals with mild to moderate depression, given in the absence of a salt or ester
Excerpt: Moreover, dietary interventions for ketogenic diet treatment of bipolar disorder are yielding compelling results. The administration of the natural form of D-BetaHydroxyButyric Acid as an exogenous compound has rapid onset and direct benefits to brain bioenergenics. […] The claimed form of D-BetaHydroxyButyric Acid is bioidentical to the natural form of ketone generated endogenously and chemically distinguishable from the artificial ‘ketone salt’ and synthetic ‘ketone ester’. This application discloses two primary embodiments for the treatment of psychiatric depressive disorders: the use of bioidentical or ‘free D-BetaHydroxyButyric Acid’ alone as well as in combination with Psilocybin derived pharmaceuticals.

[6] = previously known exogenous ketone compounds, from literature; cited from earlier work

Compound: CN(C)CCc1c[nH]c2cccc(OP(=O)(O)O)c12 [Comp360]
- Outcome in treatment-resistant depression [1]: promising results

Compound: CC(O)CC(=O)O [D-BHB, D-Beta-HydroxyButyric Acid]
- Time to rapid ketosis ([2]; 10 g D-BHB with palatability agent): ≤ 45 min
- Blood ketone level after administration ([2]; 10 g D-BHB with palatability agent, test subject rising from 0.2 mmol/L): 1.8 mmol/L
- Blood ketone level after administration ([2]; 10 g D-BHB with palatability agent, test subject rising from 0.6 mmol/L): 1.9 mmol/L
- Blood ketone level after administration ([2]; 15 g D-BHB with palatability agent, rise from 0.1 mmol/L): 2.7 mmol/L
- Rapid glucose spike after carbohydrate ingestion [3]: not found
- Deep sleep quantity [4]: enhance the quantity of deep sleep obtained
- Increase in body ketone level ([4]; CKM): 1.5 mmol/L
- Reduction of anxiety and depression [5]: often benefit

Compound: C[C@@H](O)CCOC(=O)C[C@@H](C)O [ketone ester, (R)-3-hydroxybutyl (R)-3-hydroxybutyrate]
- Ketone increase (blood level) [6]: higher ketone level response
